Target: T1, mGlyT-1b (Mus musculus, UniProt P28571)
T1 construct: host or cells: Flp-in-CHO
T1 sequence (P28571 1-651 isoform P28571-2): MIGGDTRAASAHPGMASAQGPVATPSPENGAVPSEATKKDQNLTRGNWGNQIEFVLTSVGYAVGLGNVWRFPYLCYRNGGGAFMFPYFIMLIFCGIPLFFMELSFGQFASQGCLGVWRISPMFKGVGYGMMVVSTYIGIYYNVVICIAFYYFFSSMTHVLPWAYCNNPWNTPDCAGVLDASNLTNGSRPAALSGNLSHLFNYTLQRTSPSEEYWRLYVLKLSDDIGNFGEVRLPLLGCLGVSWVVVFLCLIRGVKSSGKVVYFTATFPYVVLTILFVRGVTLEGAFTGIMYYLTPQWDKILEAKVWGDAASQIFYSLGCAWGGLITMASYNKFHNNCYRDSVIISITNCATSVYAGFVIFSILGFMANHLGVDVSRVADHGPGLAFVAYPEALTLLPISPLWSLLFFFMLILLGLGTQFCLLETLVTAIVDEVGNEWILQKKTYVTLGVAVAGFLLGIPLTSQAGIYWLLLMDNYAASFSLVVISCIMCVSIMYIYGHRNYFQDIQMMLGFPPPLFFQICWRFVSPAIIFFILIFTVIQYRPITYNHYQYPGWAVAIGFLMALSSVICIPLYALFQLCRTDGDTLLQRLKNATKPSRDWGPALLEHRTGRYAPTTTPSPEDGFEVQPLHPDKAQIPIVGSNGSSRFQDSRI
Assay: Glycine uptake inhibition assay (mGlyT-1b), [3H]-glycine uptake in Flp-in-CHO cells
Format: cell-based
Settings: Flp-in-CHO cells stably transfected with mGlyT1b cDNA, 20 min at 22° C. preincubation
Method: Nutrient mixture F-12 (Gibco Life-technologies), fetal bovine serum (FBS) 5%, (Gibco life technologies), Penicillin/Streptomycin 1% (Gibco life technologies), Hygromycin 0.6 mg/ml (Gibco life technologies), Glutamine 1 mM Gibco life technologies) • Uptake buffer (UB): 150 mM NaCl, 10 mM Hepes-Tris, pH 7.4, […], 2.5 mM KCl, 2.5 mM MgSO4, 10 mM (+) D-glucose. • Flp-in™-CHO (Invitrogen Cat n° R758-07) cells stably transfected with mGlyT1b cDNA. Glycine Uptake Inhibition Assay (mGlyT-1b)
On day 1 mammalian cells, (Flp-in™-CHO), transfected with mGlyT-1b cDNA, were plated at the density of 40,000 cells/well in complete F-12 medium, without hygromycin in 96-well culture plates. On day 2, the medium was aspirated and the cells were washed twice with uptake buffer (UB). The cells were then incubated for 20 min at 22° C. with either (i) no potential competitor, (ii) 10 mM non-radioactive glycine, (iii) a concentration of a potential inhibitor. A range of concentrations of the potential inhibitor was used to generate data for calculating the concentration of inhibitor resulting in 50% of the effect (e.g. IC50, the concentration of the competitor inhibiting glycine uptake of 50%). A solution was then immediately added containing [^3H]-glycine 60 nM (11-16 Ci/mmol) and 25 μM non-radioactive glycine. The plates were incubated with gentle shaking and the reaction was stopped by aspiration of the mixture and washing (three times) with ice-cold UB. The cells were lysed with scintillation liquid, shaken 3 hours and the radioactivity in the cells was counted using a scintillation counter.

Row | Structure (SMILES) | IC50
1 | COc1cc(C(F)(F)F)ccc1C(=O)NC(c1ccccc1)C1(N2CCCC2)CCC1 (stereo not drawn) [Example 17, 2-Methoxy-N-[phenyl-(1-pyrrolidin-1-yl-cyclobutyl)-methyl]-4-trifluoromethyl-benzamide] | 0.0368 µM
2 | COc1cc(C(F)(F)F)cc(SC)c1C(=O)NC(c1cc(F)cc(F)c1)C1(N2CCCC2)CCC1 (stereo not drawn) [Example 53] | 0.0141 µM
3 | COc1cc(C(F)(F)F)cc(SC)c1C(=O)NC(c1ccccc1)C1(N2CCCC2)CCC1 (stereo not drawn) [Example 12, 2-Methoxy-6-methylsulfanyl-N-[phenyl-(1-pyrrolidin-1-yl-cyclobutyl)-methyl]-4-trifluoromethyl-benzamide] | 0.0112 µM
4 | COc1cc(C(F)(F)F)cc(SC)c1C(=O)NC(c1ccccc1)C1(N2CCCC2)CCC1 (single isomer, unassigned; (+)) [Example 32, (+)-2-Methoxy-6-methylsulfanyl-N-[phenyl-(1-pyrrolidin-1-yl-cyclobutyl)-methyl]-4-trifluoromethyl-benzamide] | 0.0225 µM
5 | COc1cc(C(F)(F)F)cc(SC)c1C(=O)NC(c1ccccc1)C1(N2CCCCC2)CCC1 (stereo not drawn) [Example 49, 2-Methoxy-6-methylsulfanyl-N-[phenyl-(1-piperidin-1-yl-cyclobutyl)-methyl]-4-trifluoromethyl-benzamide] | 0.0237 µM
6 | CSc1cc(C(F)(F)F)ccc1C(=O)NC(c1ccc(Cl)cc1)C1(N2CCCC2)CCC1 (stereo not drawn) [Example 36, N-[(4-Chloro-phenyl)-(1-pyrrolidin-1-yl-cyclobutyl)-methyl]-methylsulfanyl-4-trifluoromethyl-benzamide] | 0.0597 µM
7 | CSc1cc(C(F)(F)F)ccc1C(=O)NC(c1ccccc1)C1(N2CCCC2)CCC1 (stereo not drawn) [Example 16, 2-Methylsulfanyl-N-[phenyl-(1-pyrrolidin-1-yl-cyclobutyl)-methyl]-4-trifluoromethyl-benzamide] | 0.0134 µM
8 | O=C(NC(c1ccccc1)C1(N2CCCC2)CCC1)c1ccc(Cl)cc1C(F)(F)F (stereo not drawn) [Example 54] | 0.0275 µM
9 | COc1cc(C(F)(F)F)cc(SC)c1C(=O)NC(c1ccc(F)cc1)C1(N2CCCC2)CCC1 (stereo not drawn) [Example 38, N-[(4-Fluoro-phenyl)-(1-pyrrolidin-1-yl-cyclobutyl)-methyl]-2-methoxy-6-methylsulfanyl-4-trifluoromethyl-benzamide] | 0.0175 µM
10 | CSc1cc(C(F)(F)F)ccc1C(=O)NC(c1cccc(F)c1)C1(N2CCCC2)CCC1 (stereo not drawn) [Example 55, N-[(3-Fluoro-phenyl)-(1-pyrrolidin-1-yl-cyclobutyl)-methyl]-2-methylsulfanyl-4-trifluoromethyl-benzamide] | 0.0139 µM
11 | CSc1cc(C(F)(F)F)ccc1C(=O)NC(c1ccccc1)C1(N2CC3(COC3)C2)CCC1 (stereo not drawn) [Example 74, 2-Methylsulfanyl-N-{[1-(2-oxa-6-aza-spiro[3.3]hept-6-yl)-cyclobutyl]-phenyl-methyl}-4-trifluoromethyl-benzamide] | 0.0101 µM
12 | CSc1cc(C(F)(F)F)ccc1C(=O)NC(c1ccc(F)cc1)C1(N2CCCC2)CCC1 (stereo not drawn) [Example 24, N-[(4-Fluoro-phenyl)-(1-pyrrolidin-1-yl-cyclobutyl)-methyl]-2-methylsulfanyl-4-trifluoromethyl-benzamide] | 0.02 µM
13 | O=C(NC(c1ccccc1)C1(N2CCCC2)CCC1)c1ccc(Cl)cc1Cl (stereo not drawn) [Example 43, 2,4-Dichloro-N-[phenyl-(1-pyrrolidin-1-yl-cyclobutyl)-methyl]-benzamide] | 0.0669 µM
14 | COc1cc(C(F)(F)F)cc(SC)c1C(=O)NC(c1ccccc1)C1(N2CCCC2)CC1 (stereo not drawn) [Example 10, 2-Methoxy-6-methylsulfanyl-N-[phenyl-(1-pyrrolidin-1-yl-cyclopropyl)-methyl]-4-trifluoromethyl-benzamide] | 0.0253 µM
15 | Cc1cc(F)ccc1C(=O)NC(c1ccccc1)C1(N2CCCC2)CCC1 (stereo not drawn) [Example 57, 4-Fluoro-2-methyl-N-[phenyl-(1-pyrrolidin-1-yl-cyclobutyl)-methyl]-benzamide] | 0.0596 µM
16 | CSc1cc(C(F)(F)F)cc(C(F)(F)F)c1C(=O)NC(c1ccccc1)C1(N2CCCC2)CCC1 (single isomer, unassigned; (-)) [Example 31, (−)-2-Methylsulfanyl-N-[phenyl-(1-pyrrolidin-1-yl-cyclobutyl)-methyl]-4,6-bis-trifluoromethyl-benzamide] | 0.0181 µM
17 | CSc1cccc(C(F)(F)F)c1C(=O)NC(c1ccccc1)C1(N2CCCC2)CCC1 (stereo not drawn) [Example 13, 2-Methylsulfanyl-N-[phenyl-(1-pyrrolidin-1-yl-cyclobutyl)-methyl]-6-trifluoromethyl-benzamide] | 0.034 µM
18 | O=C(NC(c1ccccc1)C1(N2CCCC2)CCC1)c1ccc(C(F)(F)F)cc1-c1ccccc1 (stereo not drawn) [Example 67, 5-Trifluoromethyl-biphenyl-2-carboxylic acid [phenyl-(1-pyrrolidin-1-yl-cyclobutyl)-methyl]-amide] | 0.0562 µM
19 | CCc1cc(C(F)(F)F)ccc1C(=O)NC(c1ccccc1)C1(N2CCCC2)CCC1 (stereo not drawn) [Example 68, 2-Ethyl-N-[phenyl-(1-pyrrolidin-1-yl-cyclobutyl)-methyl]-4-trifluoromethyl-benzamide] | 0.0091 µM
20 | CCc1cc(C(F)(F)F)cc(C(F)(F)F)c1C(=O)NC(c1ccccc1)C1(N2CCCC2)CCC1 (stereo not drawn) [Example 37] | 0.0398 µM
21 | COc1cc(C(F)(F)F)cc(SC)c1C(=O)NC(c1ccccc1)C1(N2CCCC2)CCC1 (single isomer, unassigned; (+)) [Example 33, (+)-2-Methoxy-6-methylsufanyl-N-[phenyl-(1-pyrrolidin-1-yl-cyclobutyl)-methyl]-4-trifluoromethyl-benzamide] | 0.00847 µM
22 | COc1cc(Cl)ccc1C(=O)NC(c1ccccc1)C1(N2CCCC2)CCC1 (stereo not drawn) [Example 47, 4-Chloro-2-methoxy-N-[phenyl-(1-pyrrolidin-1-yl-cyclobutyl)-methyl]-benzamide] | 0.0724 µM
23 | COc1cc(C(F)(F)F)cc(C(F)(F)F)c1C(=O)NC(c1ccccc1)C1(N2CCCC2)CCC1 (stereo not drawn) [Example 14, 2-Methoxy-N-[phenyl-(1-pyrrolidin-1-yl-cyclobutyl)-methyl]-4,6-bis-trifluoromethyl-benzamide] | 0.0455 µM
24 | Cc1cc(C(F)(F)F)ccc1C(=O)NC(c1ccccc1)C1(N2CCCC2)CCC1 (stereo not drawn) [Example 41, 2-Methyl-N-[phenyl-(1-pyrrolidin-1-yl-cyclobutyl)-methyl]-4-trifluoromethyl-benzamide] | 0.0148 µM
25 | CSc1cc(C(F)(F)F)ccc1C(=O)NC(c1ccccc1)C1(N(C)C)CCC1 (stereo not drawn) [Example 50, N-[(1-Dimethylamino-cyclobutyl)-phenyl-methyl]-2-methylsulfanyl-4-trifluoromethyl-benzamide] | 0.01 µM
26 | COc1cc(C(F)(F)F)cc(SC)c1C(=O)NC(c1ccc(Cl)cc1)C1(N2CCCC2)CCC1 (stereo not drawn) [Example 39, N-[(4-Chloro-phenyl)-(1-pyrrolidin-1-yl-cyclobutyl)-methyl]-2-methoxy-6-methylsulfanyl-4-trifluoromethyl-benzamide] | 0.0211 µM
27 | CSc1cc(C(F)(F)F)ccc1C(=O)NC(c1ccccc1)C1(N2CCCCC2)CCC1 (stereo not drawn) [Example 48, 2-Methylsulfanyl-N-[phenyl-(1-piperidin-1-yl-cyclobutyl)-methyl]-4-trifluoromethyl-benzamide] | 0.0275 µM
28 | CSc1cc(C(F)(F)F)ccc1C(=O)NC(c1cc(F)cc(F)c1)C1(N2CCCC2)CCC1 (stereo not drawn) [Example 40, N-[(3,5-Difluoro-phenyl)-(1-pyrrolidin-1-yl-cyclobutyl)-methyl]-2-methylsulfanyl-4-trifluoromethyl-benzamide] | 0.0322 µM
29 | CSc1cc(C(F)(F)F)cc(C(F)(F)F)c1C(=O)NC(c1ccccc1)C1(N2CCCC2)CCC1 (stereo not drawn) [Example 9, 2-Methylsulfanyl-N-[phenyl-(1-pyrrolidin-1-yl-cyclobutyl)-methyl]-4,6-bis-trifluoromethyl-benzamide] | 0.0295 µM
30 | Cc1cc(Cl)ccc1C(=O)NC(c1ccccc1)C1(N2CCCC2)CCC1 (stereo not drawn) [Example 63, 4-Chloro-2-methyl-N-[phenyl-(1-pyrrolidin-1-yl-cyclobutyl)-methyl]-benzamide] | 0.0297 µM
